Data on 1 molecule can be found in PMC5638327, “Comparison of bioavailability and antiplatelet action of ticagrelor in patients with ST-elevation myocardial infarction and non-ST-elevation myocardial infarction: A prospective, observational, single-centre study” (PLoS ONE, 2017).

The structures appear in SMILES notation.

A short description of series [1]: Adverse events during the observation period (12 hours after ticagrelor LD). The format is in vivo, human (patients with myocardial infarction). From the text: Between November 2015 and January 2017, a total of 73 consecutive AMI patients (49 STEMI and 24 NSTEMI) were enrolled. The recruitment continued until the minimum required number of patients were enrolled in the less numerous group (NSTEMI). There were no differences in the baseline characteristics between the two groups, except higher mean left ventricle ejection fraction seen in NSTEMI patients at discharge (Table 1). Of note, as expected numerically greater proportion of STEMI patients were treated with morphine, but this difference was statistically insignificant. Adverse events during the observation period (12 hours after ticagrelor LD) were sporadic and mild (STEMI vs. NSTEMI: Thrombolysis in Myocardial Infarction minimal bleeding 6.1% vs. 8.3%, p = 0.92; dyspnea 2.0% vs. 4.2%, p = 0.83; vomiting 4.1% vs. 4.2%, p = 0.56). […]
Ludwika Rydygiera w Bydgoszczy (study
PLATO trial, deﬁnite or probable stent thrombosis approval reference number: KB 617/2015). […]
Thrombolysis In Myocardial Infarction (TIMI) criteria, still being collected, currently no additional data are available besides given in dyspnoea adverse events according to criteria used in the submitted study protocol. […]
Postepy […]
trial is expected to be the ﬁrst study to elucidateKardiol Interwencyjnej 2015;11:259–80. whether STEMI is associated with poorer absorption and 8. Navarese EP, Buffon A, Kozinski M, et al. A critical overview on ticagrelor in acute coronary syndromes. QJM 2013;106:105–15. subsequently weaker antiplatelet action of ticagrelor in 9. Adamski P, Koziński M, Ostrowska M, et al. Overview of pleiotropic comparison with NSTEMI. effects of platelet P2Y12 receptor inhibitors. Thromb Haemost […]
1Department of Principles of Clinical Medicine, Collegium Medicum, Nicolaus Drug Metab Dispos 2010;38:1514–21.
Copernicus University, Bydgoszcz, Poland 11. Husted S, Emanuelsson H, Heptinstall S, et al. Pharmacodynamics, 2Department of Pharmacology and Therapy, Collegium Medicum, Nicolaus pharmacokinetics, and safety of the oral reversible P2Y12 antagonist AZD6140 with aspirin in patients with atherosclerosis: a double-blind
Copernicus University, Bydgoszcz, Poland comparison to clopidogrel with aspirin. Eur Heart J 3Department of Cardiology and Internal Medicine, Collegium Medicum, 2006;27:1038–47.
Nicolaus Copernicus University, Bydgoszcz, Poland 12. Varenhorst C, Eriksson N, Johansson Å, et al. Effect of genetic 4Department of Theoretical Foundations of Biomedical Science and Medical variations on ticagrelor plasma levels and clinical outcomes.
Informatics, Collegium Medicum, Nicolaus Copernicus University, Bydgoszcz, Eur Heart J 2015;36:1901–12.
Poland 13. Teng R, Mitchell P, Butler K. Effect of age and gender on 5Department of Laboratory Medicine, Collegium Medicum, Nicolaus pharmacokinetics and pharmacodynamics of a single ticagrelor dose in healthy individuals. Eur J Clin Pharmacol 2012;68:1175–82.
Copernicus University, Bydgoszcz, Poland 14. Teng R, Mitchell PD, Butler K. Lack of significant food effect on the 6Department of Medicinal Chemistry, Collegium Medicum, Nicolaus pharmacokinetics of ticagrelor in healthy volunteers. J Clin Pharm Copernicus University, Bydgoszcz, Poland Ther 2012;37:4648.– […]

Series [2] relates to platelet inhibition. On the set-up: method as in earlier work. Particulars: 2 hours after ticagrelor LD; ref 18 20 25 (of the protocol); cited from earlier work.
Series [3] can be described thus: Pharmacokinetic assessment: plasma concentrations by liquid chromatography tandem mass spectrometry after ticagrelor loading dose. The class given is in vivo, human (patients with myocardial infarction). The conditions noted are these: both sexes, human, oral, 180 mg, internal pilot study, first 15 patients with NSTEMI, mean and SD, read-out: AUC(0–6).

As to `CCCSc1nc(N[C@@H]2C[C@H]2c2ccc(F)c(F)c2)c2nnn([C@@H]3C[C@H](OCCO)[C@@H](O)[C@H]3O)c2n1` [ticagrelor], in series [1] (NSTEMI patients), the “Thrombolysis in Myocardial Infarction minimal bleeding” value turned out to be 8.3%, the dyspnea was 4.2% and the vomiting is reported as 4.2%. For the same molecule, in series [1] (STEMI patients), the “Thrombolysis in Myocardial Infarction minimal bleeding” value is on record as 6.1%, the dyspnea was 2.0% and the vomiting turned out to be 4.1%. The “patients with STEMI with inadequate platelet inhibition” value in series [2] is on record as at most 60%. Moreover, in series [3], the AUC(0-t) worked out at 6410 ± 4080 ng·h/mL.
